The structures appear in SMILES notation. Values after ≈ are worked out from the molar mass of the structure shown. Where only a bound is given, the exact number is not on record here.

One series deals with Human alphaherpesvirus 2. The experiment in a line: Antiviral activity against HSV2 MS in african green monkey Vero cells by viral cytopathic effect assay. The following applies: Human alphaherpesvirus 2, MS. It counts as functional, organism-based. For orientation: Damage to the host cells serves as the signal in cytopathic effect assays.
A further series has as its system Vero. The experiment in a line: Cytotoxicity against african green monkey Vero cells by MTT assay. Type of series: cell-based. The following applies: Chlorocebus sabaeus. For orientation: Tetrazolium dyes change colour on reduction, which living cells bring about.
Series [1] in a line: Selectivity index, ratio of IC50 for african green monkey Vero cells to EC50 for HSV2 MS.
Series [2] has as its system Influenza A virus. The experiment in a line: Antiviral activity against influenza A virus NJH1N1 in MDCK cells by hemadsorption-inhibition assay. It counts as functional, organism-based.
The test system of another series is MDCK. Description: Cytotoxicity against MDCK cells by neutral red assay. It counts as cell-based. The conditions noted are these: Canis lupus familiaris.
Series [3] in a line: Selectivity index, ratio of IC50 for MDCK cells to EC50 for influenza A virus NJH1N1. It counts as toxicity, cell-based. The following applies: dog, read-out: Ratio IC50/EC50.
In series [4] the test system is Influenza A virus. Description: Antiviral activity against influenza A virus NWS33 in MDCK cells assessed as inhibition of viral cytopathic effect by neutral red assay. Type of series: functional, organism-based.
The nature of series [5]: Selectivity index, ratio of IC50 for MDCK cells to EC50 for influenza A virus NWS33. It counts as toxicity, cell-based. The following applies: dog, read-out: Ratio IC50/EC50.

Consider `Nc1nc2c(ncn2COCCO)c(=O)[nH]1` [ACYCLOVIR], for which, in the series with Human alphaherpesvirus 2, the EC50 is 1.5 µg/mL (≈ 6.66 µM). In the series on Vero, this compound gave an IC50 of more than 100 µg/mL. In addition, the “Ratio IC50/EC50” value in series [1] is reported as more than 60.

The compound `NC12CC3CC(CC(C3)C1)C2` [AMANTADINE] registered an EC50 with Influenza A virus [2] of 0.054 µg/mL (≈ 0.357 µM). Also, half-maximal inhibition in the series on MDCK (IC50) was put at 56 µg/mL (≈ 370 µM). Besides, the selectivity ratio in series [3] is 1000.

In the case of `COC(=O)/C(=C/c1ccc2c(c1)OCO2)C(Cc1cc(OC)c2c(c1)OCO2)C(=O)OC` (stereo unspecified) [RHINACANTHIN E], the EC50 in the series with Influenza A virus [2] was found to be 1.7 µg/mL (≈ 3.84 µM); with Influenza A virus [4], 7.4 µg/mL (≈ 16.7 µM). Moreover, the IC50 came to 44 µg/mL (≈ 99.5 µM) with MDCK and 17 µg/mL (≈ 38.4 µM) in the series with Vero. Moreover, the selectivity ratio was 26 in series [3] and 15 in series [5].

With `COC(=O)C(Cc1ccc2c(c1)OCO2)C(Cc1cc(OC)c2c(c1)OCO2)C(=O)OC` (stereo unspecified) [RHINACANTHIN F], the concentration for a half-maximal effect (EC50) with Influenza A virus [2] was less than 0.94 µg/mL; in the series on Influenza A virus [4] it was 3.1 µg/mL (≈ 6.98 µM). The values for the IC50 in the series with MDCK and with Vero were 17 µg/mL (≈ 38.3 µM) and 4.4 µg/mL (≈ 9.9 µM), respectively. The selectivity ratio is more than 18 in series [3] and 6.8 in series [5].

`NC(=O)c1ncn([C@@H]2O[C@H](CO)[C@@H](O)[C@H]2O)n1` [RIBAVIRIN]: the half-maximal effective concentration (EC50) with Influenza A virus [4] was found to be 3.7 µg/mL (≈ 15.2 µM). Further, the IC50 with MDCK is more than 200 µg/mL. Moreover, the selectivity ratio in series [5] is more than 59.

As a reminder, the EC50 is the concentration at which the effect is half-maximal. By IC50 is commonly meant the concentration needed to halve the response being measured.

(Values after ChEMBL document CHEMBL1145712, “Two new lignans with activity against influenza virus from the medicinal plant Rhinacanthus nasutus” (J Nat Prod, 1997).)
